Results as given in ChEMBL document CHEMBL1136170, “5-aryl thiazolidine-2,4-diones: discovery of PPAR dual alpha/gamma agonists as antidiabetic agents” (Bioorg Med Chem Lett, 2003).

Tests used:
[1] = biological target: T1, Peroxisome proliferator-activated receptor alpha (Homo sapiens, UniProt Q07869); assay: In vitro binding affinity against human Peroxisome proliferator activated receptor alpha
T1 sequence (Q07869 whole entry): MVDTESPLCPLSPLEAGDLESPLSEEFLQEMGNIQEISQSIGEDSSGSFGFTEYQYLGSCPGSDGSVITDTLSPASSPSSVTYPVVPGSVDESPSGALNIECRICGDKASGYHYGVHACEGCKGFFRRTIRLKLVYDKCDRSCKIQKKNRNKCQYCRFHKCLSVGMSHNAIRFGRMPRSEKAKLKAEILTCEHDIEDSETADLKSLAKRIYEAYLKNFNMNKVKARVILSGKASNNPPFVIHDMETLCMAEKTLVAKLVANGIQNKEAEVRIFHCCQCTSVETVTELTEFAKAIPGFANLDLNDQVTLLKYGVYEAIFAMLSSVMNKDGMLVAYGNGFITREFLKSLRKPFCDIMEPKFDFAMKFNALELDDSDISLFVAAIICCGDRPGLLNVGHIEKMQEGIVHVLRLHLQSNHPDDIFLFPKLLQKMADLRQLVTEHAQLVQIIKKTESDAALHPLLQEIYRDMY

[2] = Plasma clearance in fasted male Sprague dawely rats on administration of 0.5 mg/Kg i.v. of the compound; assay type: ADME, organism-based; conditions: Sprague-Dawley, rat, iv, read-out: Clp
Rattus norvegicus [3] = assay: Dose-normalized AUC measured in fasted male Sprague dawely rats when the compound was administered at a peroral dose of 2 mg/Kg; assay type: ADME, organism-based; conditions: in vivo, po
[4] = Half life was measured in fasted male administration of compound 0.5 mg/Kg i.v.; assay type: ADME, organism-based; conditions: rat, in vivo, iv
[5] = Oral bioavailability in rat (Sprague-Dawley) (fasted male) (dose 2 mg/kg); assay type: ADME, organism-based; conditions: in vivo
Mus musculus [6] = assay: In vivo efficacy as percent glucose correction in male db/db mice at 10 mg/kg oral dose; assay type: functional
Mus musculus [7] = assay: In vivo efficacy as percent triglyceride correction in male db/db mice at 10 mg/kg oral dose; assay type: functional
[8] = biological target: T2, Peroxisome proliferator-activated receptor delta (Homo sapiens, UniProt Q03181)
T2 sequence (Q03181 whole entry): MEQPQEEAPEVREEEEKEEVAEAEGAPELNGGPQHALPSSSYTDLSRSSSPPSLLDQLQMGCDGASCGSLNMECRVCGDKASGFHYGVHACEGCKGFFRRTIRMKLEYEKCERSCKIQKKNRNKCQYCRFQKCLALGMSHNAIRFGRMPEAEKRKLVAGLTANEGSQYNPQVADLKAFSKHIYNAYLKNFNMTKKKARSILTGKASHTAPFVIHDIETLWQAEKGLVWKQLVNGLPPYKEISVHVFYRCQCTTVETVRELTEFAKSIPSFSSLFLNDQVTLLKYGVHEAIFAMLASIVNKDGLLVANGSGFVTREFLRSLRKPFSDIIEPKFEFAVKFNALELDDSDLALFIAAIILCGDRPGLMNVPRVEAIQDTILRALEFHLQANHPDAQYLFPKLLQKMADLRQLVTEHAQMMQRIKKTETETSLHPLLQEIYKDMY
Description: In vitro transactivation of human Peroxisome proliferator activated receptor delta measured in PPAR-GAL4 chimeric COS-1 cells

[9] = biological target: T2, Peroxisome proliferator-activated receptor delta; remark: listed apart in the source
Description: In vitro binding affinity against human Peroxisome proliferator activated receptor delta

[10] = Bioavailability in fasted male administration of 2 mg/Kg of compound p.o.; assay type: ADME, organism-based; conditions: rat, in vivo, po
Rattus norvegicus [11] = assay: Dose-normalized AUC measured in fasted male Sprague dawely rats when the compound was administered at a peroral of 2 mg/Kg; assay type: ADME, organism-based; conditions: in vivo, po

clearance [2]	nAUC (Rattus norvegicus [3])	half-life [4]	EC50 [8]	IC50 [9]	Compound	Glucose correction (Mus musculus [6])	Triglyceride correction (Mus musculus [7])	other results
–	–	–	–	3 µM	CCCc1cc(Oc2ccccc2)ccc1OCCCCOc1cccc(C2SC(=O)NC2=O)c1 (configuration not stated)	–	–	–
9.7 mL/min/kg	1.5 uMh	174 min	> 3 µM	> 50 µM	CCCc1cc(Oc2ccc(Cl)cc2)ccc1OCCCOc1cccc(C2SC(=O)NC2=O)c1 (configuration not stated)	86%	68%	bioavailability [5]: 44%
–	–	–	> 3 µM	> 10 µM	CCCc1cc(Oc2ccc(OC)cc2)ccc1OCCCOc1cccc(C2SC(=O)NC2=O)c1 (configuration not stated)	–	–	–
9.5 mL/min/kg	21.78 uMh	90 min	–	–	CCCc1cc(Oc2ccccc2)ccc1OCCCOc1cccc(C2SC(=O)NC2=O)c1 (configuration not stated)	91%	67%	bioavailability [10]: 62%
–	–	–	> 3 µM	3.8 µM	CCCc1cc(Oc2ccc(O)cc2)ccc1OCCCOc1cccc(C2SC(=O)NC2=O)c1 (configuration not stated)	–	–	–
6.1 mL/min/kg	–	198 min	> 3 µM	> 50 µM	CCCc1cc(Oc2ccc(C(C)C)cc2)ccc1OCCCOc1cccc(C2SC(=O)NC2=O)c1 (configuration not stated)	–	–	nAUC (Rattus norvegicus [11]): 0.3 uMh; bioavailability [5]: 6%
10.2 mL/min/kg	3.3 uMh	78 min	> 3 µM	> 5 µM	CCCc1cc(Oc2ccc(F)cc2)ccc1OCCCOc1cccc(C2SC(=O)NC2=O)c1 (configuration not stated)	90%	76%	bioavailability [5]: 66%
–	–	–	> 3 µM	> 50 µM	CCCc1cc(Oc2ccc(-c3ccccc3)cc2)ccc1OCCCOc1cccc(C2SC(=O)NC2=O)c1 (configuration not stated)	–	–	–

Second part, the compound before the results:

Compound	clearance [2]	nAUC (Rattus norvegicus [3])	half-life [4]	EC50 [8]	IC50 [9]	Glucose correction (Mus musculus [6])	Triglyceride correction (Mus musculus [7])	other results
CCCc1cc(Oc2ccccc2)ccc1OCCCOc1ccc(C2SC(=O)NC2=O)cc1 (configuration not stated)	–	–	–	–	–	–	–	IC50 [1]: > 50 µM
CCCc1cc(Oc2ccc(Cl)c(Cl)c2)ccc1OCCCOc1cccc(C2SC(=O)NC2=O)c1 (configuration not stated)	7.9 mL/min/kg	0.8 uMh	132 min	> 3 µM	> 50 µM	79%	77%	bioavailability [5]: 19%
CCCc1cc(Oc2ccc(CC(C)C)cc2)ccc1OCCCOc1cccc(C2SC(=O)NC2=O)c1 (configuration not stated)	–	–	–	–	> 50 µM	–	–	–
CCCc1cc(Oc2ccc(Cl)c(C)c2)ccc1OCCCOc1cccc(C2SC(=O)NC2=O)c1 (configuration not stated)	–	–	–	> 3 µM	> 50 µM	–	–	–
CCCc1cc(Oc2ccc(C(C)(C)C)cc2)ccc1OCCCOc1cccc(C2SC(=O)NC2=O)c1 (configuration not stated)	–	–	–	–	> 50 µM	–	–	–
O=C1NC(=O)C(c2cccc(OCCCOc3ccc(Oc4ccccc4)cc3)c2)S1 (configuration not stated)	–	–	–	–	0.19 µM	–	–	–
CCCc1cc(Oc2ccc(F)c(C)c2)ccc1OCCCOc1cccc(C2SC(=O)NC2=O)c1 (configuration not stated)	10.5 mL/min/kg	0.6 uMh	198 min	> 50 µM	> 50 µM	78%	69%	bioavailability [5]: 20%
CCCc1cc(Oc2ccc(C3CCCC3)cc2)ccc1OCCCOc1cccc(C2SC(=O)NC2=O)c1 (configuration not stated)	–	–	–	> 3 µM	> 50 µM	–	–	–
CN(CCOc1ccc(CC2SC(=O)NC2=O)cc1)c1ccccn1 (configuration not stated) [ROSIGLITAZONE]	–	16.4 uMh	–	–	–	67%	74%	–
